Measurements reported in patent US7109296B2, “Human 5-HT3-C protein” (Ortho-McNeil Pharmaceutical, Inc., priority 1999, dated 2006).

Legend:
Assay type in all cases: cell-based
human 5-HT3-C = biological target: T1, human 5-HT3-C (Homo sapiens, UniProt Q8WXA8); experiment: Two-electrode voltage clamp, Xenopus oocytes injected with 5-HT3-C cRNA alone
T1 construct: Characterization of the Function of Protein Encoded by p5HT3CR in Xenopus oocvtes; expressed in transfected cells; host or cells: Xenopus laevis oocytes injected with in vitro transcribed cRNA (pGEM HE)
T1 sequence (Q8WXA8 28-447): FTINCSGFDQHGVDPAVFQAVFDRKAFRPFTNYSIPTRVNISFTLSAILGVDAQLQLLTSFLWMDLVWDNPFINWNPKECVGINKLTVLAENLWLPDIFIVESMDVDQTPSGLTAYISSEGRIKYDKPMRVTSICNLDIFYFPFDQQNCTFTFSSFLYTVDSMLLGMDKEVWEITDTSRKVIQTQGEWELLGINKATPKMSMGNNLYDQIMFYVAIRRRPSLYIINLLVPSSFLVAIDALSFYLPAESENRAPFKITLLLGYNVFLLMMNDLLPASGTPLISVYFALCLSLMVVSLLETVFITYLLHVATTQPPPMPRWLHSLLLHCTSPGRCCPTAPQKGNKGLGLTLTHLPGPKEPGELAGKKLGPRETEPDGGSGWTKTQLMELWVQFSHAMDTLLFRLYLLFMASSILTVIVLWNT
Description: (§1) Characterization of the Function of Protein Encoded by p5HT3CR in Xenopus oocvtes Xenopus laevis oocytes were prepared and injected using standard methods previously described and known in the art (Fraser et al., 1993). Ovarian lobes from adult female Xenopus laevis (Nasco, Fort Atkinson, Wis.) were teased apart, rinsed several times in nominally Ca-free saline containing (in mM): NaCl 82.5, KCl 2.5, MgCl2 1, HEPES 5, adjusted to pH 7.0 with NaOH(OR-2), and gently shaken in OR-2 containing 0.2% collagenase Type 1 (ICN Biomedicals, Aurora, Ohio) for 2–5 hours. When approximately 50% of the follicular layers were removed, Stage V and VI oocytes were selected and rinsed in media consisting of 75% OR-2 and 25% ND-96. The ND-96 contained (in mM): NaCl 100, KCl 2, MgCl2 1, CaCl2 1.8, HEPES 5, Na pyruvate 2.5, gentamicin (50 ug/ml), adjusted to pH 7.0 with NaOH. […] For in vitro transcription, pGEM HE (Liman et al., 1992) containing human 5-HT3-A (Genbank D49394) or 5-HT3-C cDNA was linearized with NheI and transcribed with T7 RNA polymerase (Stratagene) in the presence of the cap analog m7G(5′)ppp(5′)G. The synthesized cRNA was purified with a Sephadex G-50 spin column. […] Control oocytes were injected with 50 nl of water. Oocytes were incubated for 2–14 days in ND-96 before analysis for expression of the human 5-HT3-C. Incubations and collagenase digestion were carried out at room temperature. Injected oocytes were maintained in 48 well cell culture clusters (Costar, Cambridge, Mass.) at 18° C. Whole cell agonist-induced currents were measured 1–14 days after injection with a conventional two-electrode voltage clamp (GeneClamp500, Axon Instruments, Foster City, Calif.) using standard methods previously described and known in the art (Dascal, 1987). The microelectrodes were filled with 3 M KCl, which had resistances of 1 and 2 MΩ. Cells were continuously perfused with ND96 at 10 ml/min at room temperature unless indicated. Membrane voltage was clamped at −70 mV unless indicated.

[1] = biological target: T2, human 5-HT3-A(short) receptor (Homo sapiens, UniProt P46098); experiment: Two-electrode voltage clamp, oocytes expressing 5-HT3-A(short) homomeric receptors
T2 sequence (P46098 24-478): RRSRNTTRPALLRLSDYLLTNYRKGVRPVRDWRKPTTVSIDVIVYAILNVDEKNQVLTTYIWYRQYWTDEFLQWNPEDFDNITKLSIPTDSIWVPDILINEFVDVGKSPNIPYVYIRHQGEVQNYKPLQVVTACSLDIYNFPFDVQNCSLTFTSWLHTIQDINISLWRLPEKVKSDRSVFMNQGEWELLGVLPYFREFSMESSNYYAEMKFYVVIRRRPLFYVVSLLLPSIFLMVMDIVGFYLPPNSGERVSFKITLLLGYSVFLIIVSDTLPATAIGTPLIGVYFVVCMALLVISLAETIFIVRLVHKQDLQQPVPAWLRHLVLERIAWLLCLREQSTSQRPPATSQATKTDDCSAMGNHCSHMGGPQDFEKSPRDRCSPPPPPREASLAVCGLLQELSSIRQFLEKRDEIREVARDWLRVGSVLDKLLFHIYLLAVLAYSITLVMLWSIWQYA

5-HT3-A receptors = biological target: T3, 5-HT3-A receptors (Homo sapiens, UniProt P46098); experiment: FLIPR DiBAC control, cells stably expressing 5-HT3-A receptors; settings: control for the DIBAC; increase in fluorescence
T3 sequence (P46098 24-478): T2 sequence (P46098 24-478)

[2] = biological target: T4, human 5-HT3-A(short) together with 5-HT3-C (Homo sapiens, UniProt P46098); experiment: Two-electrode voltage clamp, oocytes co-injected with 5-HT3-A(short) and 5-HT3-C
T4 construct: Characterization of the Function of Protein Encoded by p5HT3CR in Xenopus oocvtes; expressed in transfected cells; host or cells: Xenopus laevis oocytes co-injected with cRNAs
T4 sequence (P46098 24-478): T2 sequence (P46098 24-478)
Description: as §1
Functional expression of human serotonin 5-HT3 receptor modifier subunit 5-HT3-C together with the human short form of the 5-HT3-A receptor (Genbank accession # D49394) in Xenopus oocytes is shown in FIGS. 4 and 5. Agonist was applied during the time indicated by the horizontal bar above the record. […] As a positive control for translation and surface expression, all oocytes were co-injected with a Shaker potassium channel N-terminal deletion mutant that lacks fast inactivation. […] Oocytes were continuously perfused with Ba^2+ containing ND96 at a rate of 10 ml/min at room temperature. Time scale bar: 25 sec. Similar results were obtained in experiments in which oocytes were bathed in Ca^2+ containing ND96.

sensitivity of oocytes to neuroactive compound (human 5-HT3-C; >100 μM, only 5-HT3-C cRNA (33.5 ng), n=5): insensitive
effect of agonist (agonist-induced current) (human 5-HT3-C; ≧100 μM, 33.5 ng or 3.35 ng 5-HT3-C cRNA/oocyte): no effect
peak currents to 5-HT ([1]; 5-HT3-A(short)-expressing oocytes, comparison for 2:1 ratio, n=19): −1.65+/−0.42 nA
Responses to 5-HT ([1]; 10 LM 5-HT, 5-HT3-A(short)-injected oocytes (0.33 ng), n=6): −3.89+/−0.76 nA
DiBAC membrane potential response (5-HT3-A receptors): fast transient depolarization
peak response to 5-HT ([2]; 10 μM 5-HT, 2-fold more 5-HT3-C cRNA (0.67 ng), control = 5-HT3-A homomeric): about 10 % of control
effect of 5-HT3-C on 5-HT response ([2]; 1:1 ratio, n=6): little effect
5-HT response diminished ([2]; 1.8×fold 5-HT3-C to 5-HT3-A cRNA concentration, n=3): about 20%
peak currents to 5-HT ([2]; 5-HT3-C and 5-HT3-A(short) at a ratio of 2:1, n=20): −0.028+/−0.007 nA
sensitivity of oocytes to 5-HT ([2]; 5-HT3-C:5-HT3-A(short) 10:1): essentially insensitive
Responses to 5-HT ([2]; 10 LM 5-HT, 5-HT3-C:5-HT3-A(short) 10:1 (3.35 ng : 0.33 ng), n=6): −0.010+/−0.008 nA
SMILES: NCCc1c[nH]c2ccc(O)cc12 [5-HT, 5-hydroxytryptamine]
